# Several values for one entry are separate records, joined by “and”; a condition that tells them apart may be missing. Equal values may be shown once. Read-outs that look alike come from different tables or passages of the source.
# What was measured:
# WAR–HSA interaction [1] = target: T1, WAR–HSA interaction (Homo sapiens, UniProt P02768); assay: Ultracentrifugation: WAR in the supernatant in the presence of HSA and BIL or MO; assay type: binding; details: WAR 1.0 μM, HSA 3.0 μM, ligand 5 or 20 μM, PBS pH 7.4; 170,000× g, 16 h, 20 °C; HPLC-FLD
# T1 construct: purchased Merck (Darmstadt, Germany) A1653
# T1 sequence (P02768 25-609): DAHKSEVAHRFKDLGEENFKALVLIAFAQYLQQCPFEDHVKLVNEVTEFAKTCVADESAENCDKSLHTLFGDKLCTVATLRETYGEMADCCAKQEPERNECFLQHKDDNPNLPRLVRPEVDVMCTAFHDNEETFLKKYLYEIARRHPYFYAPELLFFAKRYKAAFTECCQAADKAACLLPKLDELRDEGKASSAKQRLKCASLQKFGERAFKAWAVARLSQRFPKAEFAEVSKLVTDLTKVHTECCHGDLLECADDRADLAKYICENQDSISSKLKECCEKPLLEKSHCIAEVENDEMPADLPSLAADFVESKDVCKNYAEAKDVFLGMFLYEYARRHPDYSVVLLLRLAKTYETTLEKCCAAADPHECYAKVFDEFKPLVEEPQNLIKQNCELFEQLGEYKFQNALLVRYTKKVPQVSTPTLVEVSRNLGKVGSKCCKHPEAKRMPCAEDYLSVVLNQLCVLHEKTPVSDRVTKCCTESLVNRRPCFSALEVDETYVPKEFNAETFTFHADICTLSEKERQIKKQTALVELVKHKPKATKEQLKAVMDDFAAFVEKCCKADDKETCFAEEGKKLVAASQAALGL
# Procedure: With the optimal conditions of ultracentrifugation, we can sediment the albumin fraction of a solution without the disruption of ligand–HSA interactions. Consequently, the free fraction of a ligand can be quantified from the supernatant. […] In 11 × 34 mm PC tubes (Beckman Coulter, Brea, CA, USA), a 900 μL aliquot of samples was centrifuged for 16 h at 170,000× g and 20 °C applying a Beckman Coulter Optima MAX-XP tabletop ultracentrifuge (with MLA-130 fixed-angle rotor). Then a 200 μL volume of the supernatant was carefully removed and directly analyzed by HPLC-FLD (see in Section 3.6).
# We applied an integrated HPLC system (Jasco, Tokyo, Japan) built up from an autosampler (AS-4050), a binary pump (PU-4180), and a fluorescence detector (FP-920). Chromatographic data were evaluated employing ChromNAV2 software (Jasco, Tokyo, Japan). […] Briefly, samples (20 μL) were driven through a guard column (SecurityGuard C18, 4.0 × 3.0 mm; Phenomenex, Torrance, CA, USA) linked to a Nova-Pak C18 analytical column (150 × 3.9 mm, 4 μm; Waters, Milford, MA, USA). The isocratic elution was performed at room temperature with 1.0 mL/min flow rate applying sodium phosphate buffer (20 mM, pH 7.0), methanol, and acetonitrile (70:25:5 v/v%) as the mobile phase.
# HSA = details: cited from earlier work
# WAR–HSA complex = target: T2, WAR–HSA complex (Homo sapiens, UniProt P02768); assay: Effects of ligands on the fluorescence emission signal of WAR–HSA complex; assay type: binding; details: WAR 1 μM, HSA 3.5 μM, PBS pH 7.4, λex 317 nm; for Effect on the fluorescence emission signal of WAR (WAR–HSA complex): ligand 0–10 μM, λem 379 nm
# T2 construct: purchased Merck (Darmstadt, Germany) A1653
# T2 sequence (P02768 25-609, one chain of several): as the sequence (P02768 25-609) above
# [2] = target: T3, human serum albumin (HSA) (Homo sapiens, UniProt P02768); assay: Fluorescence quenching of HSA by Heme site ligands; assay type: binding; details: HSA 2 μM; for Kd / Fluorescence Quenching Hyperquad logK: K unit L/mol; for Kd: read-out: Fluorescence Quenching Hyperquad logK (converted); for Fluorescence Quenching Stern–Volmer Plot logKSV: KSV unit L/mol
# T3 construct: purchased Merck (Darmstadt, Germany) A1653
# T3 sequence (P02768 25-609): as above
# Procedure: Fluorescence spectra were recorded in PBS (pH 7.4) at 25 °C, employing a Hitachi F-4500 fluorometer (Tokyo, Japan). Binding constants of BIL, BVD, HEM, and MO were also determined based on fluorescence quenching studies (λex = 295 nm). Emission spectra of HSA (2.0 μM) were recorded in the absence and presence of the increasing concentrations of Heme site ligands (0.0, 0.5, 1.0, 2.0, 3.0, 5.0, 7.0, 10, and 15 μM). Before the evaluation of emission intensity data at 340 nm, the inner-filter effect of ligand molecules was corrected using the following equation [60, 61]:(8) Icor=Iobs×e^(Aex+Aem)/2 where Icor and Iobs are the corrected and observed fluorescence emission intensities, respectively; Aex and Aem are the absorbance values of Heme site ligands at 295 and 340 nm, respectively.
# WAR–HSA interaction [3] = target: T1, WAR–HSA interaction; assay: Ultrafiltration: filtered fraction of WAR in the presence of HSA and ligands; assay type: binding; details: WAR 1.0 μM, HSA 5.0 μM
# Procedure: Amicon Ultra-0.5 centrifugal filters (Merck, Darmstadt, Germany) with 30 kDa molecular weight cut-off (MWCO) value were applied. […] Before ultrafiltration, filter units were washed once with water (500 μL) then once with PBS (500 μL). […] A 500 μL aliquot of samples was transferred to the filter and centrifuged for 10 min at 7500 g and 25 °C (fixed angle rotor).
# Chromatographic data were evaluated employing ChromNAV2 software (Jasco, Tokyo, Japan). […] Briefly, samples (20 μL) were driven through a guard column (SecurityGuard C18, 4.0 × 3.0 mm; Phenomenex, Torrance, CA, USA) linked to a Nova-Pak C18 analytical column (150 × 3.9 mm, 4 μm; Waters, Milford, MA, USA). The isocratic elution was performed at room temperature with 1.0 mL/min flow rate applying sodium phosphate buffer (20 mM, pH 7.0), methanol, and acetonitrile (70:25:5 v/v%) as the mobile phase.
# [4] = target: T3, human serum albumin (HSA); assay: UV-Vis spectroscopic studies: HSA-induced increase in the absorbance of Heme site ligands; assay type: binding; details: for Kd at 5 μM: human, human serum albumin (HSA) solution in PBS; for Higher binding constant by Hyperquad evaluation of UV-Vis data: compared with quenching studies and Scatchard plot evaluation
# Procedure: UV-Vis spectra were recorded in PBS (pH 7.4) at 25 °C, employing a Jasco V730 UV-Vis spectrophotometer (Tokyo, Japan). Absorption spectra of Heme site ligands (5.0 μM each) have been recorded without and with increasing concentrations of HSA (0.0, 0.2, 0.5, 0.7, 1.0, 1.5, 2.0, 5.0, 10, and 15 μM). Binding constants (K) of ligand–albumin complexes were determined based on the HSA-induced increase in their absorbance (at 480 nm for BIL, at 390 nm for BVD, at 400 nm for HEM, and at 460 nm for MO). […] Binding constants (K; unit: L/mol) were calculated with linear and non-linear fitting, using the Scatchard equation [58] and the Hyperquad2006 software, respectively. The Scatchard equation for 1:1 binding model follows:(1) (A−A0)/[HSA]0=(Aligand−HSA−A0)×K−(A−A0)×K where A0 and A are the absorbance values of the ligand in the absence and presence of HSA, respectively; Aligand-HSA is the absorbance when each ligand molecule bound to HSA, and [HSA] is the concentration of albumin (unit: mol/L).
# The following equations are implemented in the Hyperquad program code: (2) aLIGAND+bHSA ↔LIGANDaHSAb (3) βab=[LIGANDaHSAb]/[LIGAND]^a[HSA]^b where a and b indicate the stoichiometry associated with the equilibria in the solution. All equilibrium constants are defined as overall association constants (β):(4) LIGAND+HSA ↔LIGAND HSA; β1=[LIGAND HSA]/[LIGAND][HSA] (5) 2 LIGAND+HSA ↔LIGAND2 HSA; β2=[LIGAND2HSA]/[LIGAND]^2[HSA] (6) aLIGAND+HSA ↔LIGANDaHSA; βa=[LIGANDaHSA]/[LIGAND]^a[HSA]
# The stepwise association constants (K) are defined by β:(7) β1=K1; β2=K1×K2; βa=K1×K2×…×Ka
# During data evaluation the stoichiometry and association constants of the ligand binding process were calculated using the lowest standard deviation model.
# [5] = cited from earlier work
# [6] = linear fitting, whole ligand range 0–15 μM, PBS pH 7.4, λex 295 nm, λem 340 nm, mean ± SEM
# [7] = non-linear fitting, whole ligand range 0–15 μM, PBS pH 7.4, mean ± SEM
# [8] = ligand 0–20 μM, PBS pH 7.4, 30 kDa MWCO, HPLC-FLD
# [9] = linear fitting, K unit L/mol, ligand 5 μM, HSA 0–15 μM, PBS pH 7.4, 25 °C, mean ± SEM, read-out: UV-Vis Spectroscopy Scatchard Plot logK (converted)
# [10] = non-linear fitting, K unit L/mol, ligand 5 μM, HSA 0–15 μM, PBS pH 7.4, 25 °C, mean ± SEM, read-out: UV-Vis Spectroscopy Hyperquad logK (converted)
# [11] = evaluated in the 0.5–3 µM concentration range, PBS pH 7.4
# [12] = evaluated in the 3–15 µM concentration range, PBS pH 7.4
molecule,measurement,setting,value
"CN(C)c1ccc(/N=N/c2ccc(S(=O)(=O)O)cc2)cc1 [MO, methyl orange]",Effect on the unbound fraction of WAR in the supernatant (ultracentrifugation),WAR–HSA interaction [1],considerably decreased
same,logK of the MO–HSA complex,HSA; K in L/mol,5.4
same,binding constant of the MO–HSA complex,HSA,230000 L/mol
same,Effect on the fluorescence emission signal of WAR (WAR–HSA complex),WAR–HSA complex,strongly reduced
same,Kd,"[2]; human, human serum albumin (HSA) solution in PBS, non-linear fitting, whole ligand range 0–15 μM, PBS pH 7.4, mean ± SEM",14.8 µM
same,Fluorescence Quenching Stern–Volmer Plot logKSV,[2]; [6],4.76 ± 0.02
same,Effect on the filtered fraction of WAR (ultrafiltration),WAR–HSA interaction [3]; ligand 1 μM,significantly reduced
same,Effect on the filtered fraction of WAR (ultrafiltration),WAR–HSA interaction [3]; ligand 2–20 μM,further gradual decrease
same,Kd at 5 μM,"[4]; pH 7.4, linear fitting, K unit L/mol, ligand 5 μM, HSA 0–15 μM, PBS pH 7.4, 25 °C, mean ± SEM, read-out: UV-Vis Spectroscopy Scatchard Plot logK (converted)",64.6 µM
same,Kd at 5 μM,"[4]; pH 7.4, non-linear fitting, K unit L/mol, ligand 5 μM, HSA 0–15 μM, PBS pH 7.4, 25 °C, mean ± SEM, read-out: UV-Vis Spectroscopy Hyperquad logK (converted)",18.2 µM
"C=CC1=C(C)/C(=C/c2[nH]c(Cc3[nH]c(/C=C4\NC(=O)C(C)=C4C=C)c(C)c3CCC(=O)O)c(CCC(=O)O)c2C)NC1=O [BIL, bilirubin]",Effect on the unbound fraction of WAR in the supernatant (ultracentrifugation),WAR–HSA interaction [1],significantly increased
same,Effect on the fluorescence emission signal of WAR (WAR–HSA complex),WAR–HSA complex,strongly reduced
same,Fluorescence Quenching Stern–Volmer Plot logKSV,[2]; [6],5.26 ± 0.01
same,Kd,[2]; [7],4.47 µM
same,Effect on the filtered fraction of WAR (ultrafiltration),WAR–HSA interaction [3]; [8],strongly increased
same,Effect on albumin binding of WAR (ultrafiltration),WAR–HSA interaction [3]; ligand 5 μM,disrupted
same,Effect on albumin binding of WAR (ultrafiltration),WAR–HSA interaction [3]; ligand 20 μM,almost completely abolished
same,Higher binding constant by Hyperquad evaluation of UV-Vis data,[4],approximately 100 fold
same,Kd,[4]; [9],1480 nM
same,Kd,[4]; [10],29.5 nM
CCCCCCCCCCCCCCCCCC(=O)O [stearic acid],Increase in the emission intensity at 379 nm (WAR–HSA complex),WAR–HSA complex; fatty acid 0–10 μM,~2.5 fold
same,Effect on the filtered fraction of WAR (ultrafiltration),WAR–HSA interaction [3]; [8],decreased
C=CC1=C(C)c2cc3[n-]c(cc4[n-]c(cc5nc(cc1n2)C(C)=C5C=C)c(C)c4CCC(=O)O)c(CCC(=O)O)c3C.[Fe+2] [heme],Effect on the binding affinity of certain Site I ligands toward HSA,"HSA; Site I ligands: abacavir, efavirenz, zidovudine, furosemide, indomethacin, phenylbutazone",strongly decrease
same,Effect on the binding constant of the WAR–HSA complex,HSA,only slightly reduced
"C=CC1=C(C)/C(=C/C2=NC(=C\c3[nH]c(/C=C4\NC(=O)C(C)=C4C=C)c(C)c3CCC(=O)O)/C(CCC(=O)O)=C2C)NC1=O [BVD, biliverdin]",logK of the BVD–HSA complex,HSA; K in L/mol,≈ 6
same,binding constant of the BVD–HSA complex,HSA,approximately 10^6 L/mol
same,Effect on the fluorescence emission signal of WAR (WAR–HSA complex),WAR–HSA complex,strongly reduced
same,Fluorescence Quenching Stern–Volmer Plot logKSV,[2]; [6],5.37 ± 0.03
same,Kd,[2]; [7],3.55 µM
same,Kd,[4]; [9],11000 nM
same,Kd,[4]; [10],2820 nM
"CC(=O)CC(c1ccccc1)c1c(O)c2ccccc2oc1=O (stereo not drawn) [WAR, warfarin]",binding constant (K) of WAR–HSA complex,"HSA; spectroscopic, affinity chromatography and ultracentrifugation experiments",approximately 2 × 10^5 L/mol
same,plasma protein binding,[5],≈ 99%
hemin,Effect on the fluorescence emission signal of WAR (WAR–HSA complex),WAR–HSA complex,strongly reduced
same,Fluorescence Quenching Hyperquad logK,[2]; [11],5.34 ± 0.01
same,Fluorescence Quenching Stern–Volmer Plot logKSV,[2]; [11],5.23 ± 0.02
same,Fluorescence Quenching Hyperquad logK,[2]; [12],5.53 ± 0.02
same,Fluorescence Quenching Stern–Volmer Plot logKSV,[2]; [12],5.55 ± 0.03
same,Fluorescence Quenching Stern–Volmer Plot logKSV,[2]; [6],5.54 ± 0.02
same,Fluorescence Quenching Hyperquad logK,[2]; [7],5.49 ± 0.02
same,Effect on the filtered fraction of WAR (ultrafiltration),WAR–HSA interaction [3]; ligand 1–5 μM,decreased
same,Effect on the filtered fraction of WAR (ultrafiltration),WAR–HSA interaction [3]; ligand 10 and 20 μM,gradual elevation
same,Higher binding constant by Hyperquad evaluation of UV-Vis data,[4],approximately 100 fold
same,UV-Vis Spectroscopy Scatchard Plot logK,"[4]; linear fitting, K unit L/mol, ligand 5 μM, HSA 0–15 μM, PBS pH 7.4, 25 °C, mean ± SEM",5.74 ± 0.04
same,UV-Vis Spectroscopy Hyperquad logK,"[4]; non-linear fitting, K unit L/mol, ligand 5 μM, HSA 0–15 μM, PBS pH 7.4, 25 °C, mean ± SEM",7.4 and 7.35 ± 0.03

# Reference: article PMC9694159 (International Journal of Molecular Sciences, 2022)
